Experimental data reported in patent publication US6339042B1, “Herbicidal N-cyclohexadienyl heteroaryloxyacetamides” (American Cyanamid Co., priority 1999, dated 2002).

Experiments:
Details in all cases: three weeks after treatment
[1] = test system: Zea mays; assay: Post-emergence herbicidal evaluation, ZEAMX
Description: (§2) Each pot is examined three weeks after treatment and phytotoxicity is assessed according to the rating system set forth below.
(§3) These acetone solutions are diluted with water and the resulting formulations applied at dosage levels equivalent of about 0.4 to 0.1 kg per hectare of test compound per pot. After spraying the plants are placed on greenhouse benches and are cared for in the usual manner, commensurate with conventional greenhouse practices.

[2] = test system: Apera spica venti; assay: Pre-emergence herbicidal evaluation, APESV; type: in vivo
Description: (§1) The treated pots are then placed on greenhouse benches, watered and cared for in accordance with conventional greenhouse procedures.

[3] = test system: Oryza sativum; assay: Post-emergence herbicidal evaluation, ORYSA
Description: (§4) The compounds of the invention are tested for pre- and post-emergence herbicidal activity.
as §2, §3

[4] = test system: Hordeum vulgare; assay: Pre-emergence herbicidal evaluation, HORVW; type: in vivo
Description: as §1

[5] = test system: Setaria viridis; assay: Pre-emergence herbicidal evaluation, SETVI; type: in vivo
Description: as §1

[6] = test system: Lolium perenne; assay: Pre-emergence herbicidal evaluation, LOLPE; type: in vivo
Description: as §1

[7] = test system: Galium aparine; assay: Post-emergence herbicidal evaluation, GALAP
Description: as §4, §2, §3

[8] = test system: Triticum aestivum; assay: Post-emergence herbicidal evaluation, TRZAW
[9] = test system: Echinochloa crus-galli; assay: Post-emergence herbicidal evaluation, ECHCG
[10] = test system: Echinochloa crus-galli; assay: Pre-emergence herbicidal evaluation, ECHCG; type: in vivo
Description: as §1

[11] = test system: Galium aparine; assay: Pre-emergence herbicidal evaluation, GALAP; type: in vivo
Description: as §1

[12] = test system: Amaranthus tuberculatus; assay: Post-emergence herbicidal evaluation, AMATA; type: in vivo
[13] = test system: Lolium perenne; assay: Post-emergence herbicidal evaluation, LOLPE
[14] = test system: Triticum aestivum; assay: Pre-emergence herbicidal evaluation, TRZAW; type: in vivo
Description: as §1

[15] = test system: Apera spica venti; assay: Post-emergence herbicidal evaluation, APESV
Description: as §4, §2, §3

[16] = test system: Zea mays; assay: Pre-emergence herbicidal evaluation, ZEAMX; type: in vivo
Description: as §1

[17] = test system: Alopecurus myosuroides; assay: Post-emergence herbicidal evaluation, ALOMY
[18] = test system: Glycine max; assay: Post-emergence herbicidal evaluation, GLXMA
[19] = test system: Hordeum vulgare; assay: Post-emergence herbicidal evaluation, HORVW
Description: as §2, §3

[20] = test system: Glycine max; assay: Pre-emergence herbicidal evaluation, GLXMA; type: in vivo
Description: as §1

[21] = test system: Alopecurus myosuroides; assay: Pre-emergence herbicidal evaluation, ALOMY; type: in vivo
Description: as §1

[22] = test system: Setaria viridis; assay: Post-emergence herbicidal evaluation, SETVI
[23] = test system: Amaranthus tuberculatus; assay: Pre-emergence herbicidal evaluation, AMATA; type: in vivo
Description: as §1

[24] = test system: Oryza sativum; assay: Pre-emergence herbicidal evaluation, ORYSA; type: in vivo
Description: as §1

CC1=CC(N(C(=O)COc2nnc(C(F)(F)F)s2)C(C)C)=CC(C)(C)C1 [Example 4]
phytotoxicity rating ZEAMX ([1]; 0.100 kg/ha): 0 (0 - No effect)
phytotoxicity rating ZEAMX ([1]; 0.200 kg/ha): 0 (0 - No effect)
phytotoxicity rating ZEAMX ([1]; 0.400 kg/ha): 0 (0 - No effect)
phytotoxicity rating APESV ([2]; 0.100 kg/ha): 9 (9 - Complete kill)
phytotoxicity rating APESV ([2]; 0.200 kg/ha): 9 (9 - Complete kill)
phytotoxicity rating APESV ([2]; 0.400 kg/ha): 9 (9 - Complete kill)
phytotoxicity rating APESV ([2]; 0.800 kg/ha): 9 (9 - Complete kill)
phytotoxicity rating ORYSA ([3]; 0.100 kg/ha): 0 (0 - No effect)
phytotoxicity rating ORYSA ([3]; 0.200 kg/ha): 1 (1 - Trace effect)
phytotoxicity rating ORYSA ([3]; 0.400 kg/ha): 1 (1 - Trace effect)
phytotoxicity rating HORVW ([4]; 0.100 kg/ha): 0 (0 - No effect)
phytotoxicity rating HORVW ([4]; 0.200 kg/ha): 0 (0 - No effect)
phytotoxicity rating HORVW ([4]; 0.400 kg/ha): 1 (1 - Trace effect)
phytotoxicity rating HORVW ([4]; 0.800 kg/ha): 4 (4 - Injury)
phytotoxicity rating SETVI ([5]; 0.100 kg/ha): 6 (6 - Herbicidal effect)
phytotoxicity rating SETVI ([5]; 0.200 kg/ha): 6 (6 - Herbicidal effect)
phytotoxicity rating SETVI ([5]; 0.400 kg/ha): 6 (6 - Herbicidal effect)
phytotoxicity rating SETVI ([5]; 0.800 kg/ha): 9 (9 - Complete kill)
phytotoxicity rating LOLPE ([6]; 0.100 kg/ha): 8 (8 - Approaching complete kill)
phytotoxicity rating LOLPE ([6]; 0.200 kg/ha): 9 (9 - Complete kill)
phytotoxicity rating LOLPE ([6]; 0.400 kg/ha): 9 (9 - Complete kill)
phytotoxicity rating LOLPE ([6]; 0.800 kg/ha): 9 (9 - Complete kill)
phytotoxicity rating GALAP ([7]; 0.100 kg/ha): 0 (0 - No effect)
phytotoxicity rating GALAP ([7]; 0.200 kg/ha): 0 (0 - No effect)
phytotoxicity rating GALAP ([7]; 0.400 kg/ha): 2 (2 - Slight effect)
phytotoxicity rating TRZAW ([8]; 0.100 kg/ha): 0 (0 - No effect)
phytotoxicity rating TRZAW ([8]; 0.200 kg/ha): 1 (1 - Trace effect)
phytotoxicity rating TRZAW ([8]; 0.400 kg/ha): 3 (3 - Moderate effect)
phytotoxicity rating ECHCG ([9]; 0.100 kg/ha): 3 (3 - Moderate effect)
phytotoxicity rating ECHCG ([9]; 0.200 kg/ha): 6 (6 - Herbicidal effect)
phytotoxicity rating ECHCG ([9]; 0.400 kg/ha): 6 (6 - Herbicidal effect)
phytotoxicity rating ECHCG ([10]; 0.100 kg/ha): 6 (6 - Herbicidal effect)
phytotoxicity rating ECHCG ([10]; 0.200 kg/ha): 9 (9 - Complete kill)
phytotoxicity rating ECHCG ([10]; 0.400 kg/ha): 9 (9 - Complete kill)
phytotoxicity rating ECHCG ([10]; 0.800 kg/ha): 9 (9 - Complete kill)
phytotoxicity rating GALAP ([11]; 0.100 kg/ha): 0 (0 - No effect)
phytotoxicity rating GALAP ([11]; 0.200 kg/ha): 0 (0 - No effect)
phytotoxicity rating GALAP ([11]; 0.400 kg/ha): 2 (2 - Slight effect)
phytotoxicity rating GALAP ([11]; 0.800 kg/ha): 3 (3 - Moderate effect)
phytotoxicity rating AMATA ([12]; 0.100 kg/ha): 1 (1 - Trace effect)
phytotoxicity rating AMATA ([12]; 0.200 kg/ha): 1 (1 - Trace effect)
phytotoxicity rating AMATA ([12]; 0.400 kg/ha): 4 (4 - Injury)
phytotoxicity rating LOLPE ([13]; 0.100 kg/ha): 5 (5 - Definite injury)
phytotoxicity rating LOLPE ([13]; 0.200 kg/ha): 7 (7 - Good herbicidal effect)
phytotoxicity rating LOLPE ([13]; 0.400 kg/ha): 8 (8 - Approaching complete kill)
phytotoxicity rating TRZAW ([14]; 0.100 kg/ha): 0 (0 - No effect)
phytotoxicity rating TRZAW ([14]; 0.200 kg/ha): 0 (0 - No effect)
phytotoxicity rating TRZAW ([14]; 0.400 kg/ha): 1 (1 - Trace effect)
phytotoxicity rating TRZAW ([14]; 0.800 kg/ha): 4 (4 - Injury)
phytotoxicity rating APESV ([15]; 0.100 kg/ha): 2 (2 - Slight effect)
phytotoxicity rating APESV ([15]; 0.200 kg/ha): 8 (8 - Approaching complete kill)
phytotoxicity rating APESV ([15]; 0.400 kg/ha): 8 (8 - Approaching complete kill)
phytotoxicity rating ZEAMX ([16]; 0.100 kg/ha): 0 (0 - No effect)
phytotoxicity rating ZEAMX ([16]; 0.200 kg/ha): 1 (1 - Trace effect)
phytotoxicity rating ZEAMX ([16]; 0.400 kg/ha): 1 (1 - Trace effect)
phytotoxicity rating ZEAMX ([16]; 0.800 kg/ha): 4 (4 - Injury)
phytotoxicity rating ALOMY ([17]; 0.100 kg/ha): 4 (4 - Injury)
phytotoxicity rating ALOMY ([17]; 0.200 kg/ha): 8 (8 - Approaching complete kill)
phytotoxicity rating ALOMY ([17]; 0.400 kg/ha): 8 (8 - Approaching complete kill)
phytotoxicity rating GLXMA ([18]; 0.100 kg/ha): 2 (2 - Slight effect)
phytotoxicity rating GLXMA ([18]; 0.200 kg/ha): 4 (4 - Injury)
phytotoxicity rating GLXMA ([18]; 0.400 kg/ha): 6 (6 - Herbicidal effect)
phytotoxicity rating HORVW ([19]; 0.100 kg/ha): 0 (0 - No effect)
phytotoxicity rating HORVW ([19]; 0.200 kg/ha): 1 (1 - Trace effect)
phytotoxicity rating HORVW ([19]; 0.400 kg/ha): 2 (2 - Slight effect)
phytotoxicity rating GLXMA ([20]; 0.100 kg/ha): 0 (0 - No effect)
phytotoxicity rating GLXMA ([20]; 0.200 kg/ha): 0 (0 - No effect)
phytotoxicity rating GLXMA ([20]; 0.400 kg/ha): 0 (0 - No effect)
phytotoxicity rating GLXMA ([20]; 0.800 kg/ha): 1 (1 - Trace effect)
phytotoxicity rating ALOMY ([21]; 0.100 kg/ha): 7 (7 - Good herbicidal effect)
phytotoxicity rating ALOMY ([21]; 0.200 kg/ha): 7 (7 - Good herbicidal effect)
phytotoxicity rating ALOMY ([21]; 0.400 kg/ha): 7 (7 - Good herbicidal effect)
phytotoxicity rating ALOMY ([21]; 0.800 kg/ha): 9 (9 - Complete kill)
phytotoxicity rating SETVI ([22]; 0.100 kg/ha): 3 (3 - Moderate effect)
phytotoxicity rating SETVI ([22]; 0.200 kg/ha): 5 (5 - Definite injury)
phytotoxicity rating SETVI ([22]; 0.400 kg/ha): 5 (5 - Definite injury)
phytotoxicity rating AMATA ([23]; 0.100 kg/ha): 6 (6 - Herbicidal effect)
phytotoxicity rating AMATA ([23]; 0.200 kg/ha): 6 (6 - Herbicidal effect)
phytotoxicity rating AMATA ([23]; 0.400 kg/ha): 8 (8 - Approaching complete kill)
phytotoxicity rating AMATA ([23]; 0.800 kg/ha): 8 (8 - Approaching complete kill)
phytotoxicity rating ORYSA ([24]; 0.100 kg/ha): 3 (3 - Moderate effect)
phytotoxicity rating ORYSA ([24]; 0.200 kg/ha): 4 (4 - Injury)
phytotoxicity rating ORYSA ([24]; 0.400 kg/ha): 5 (5 - Definite injury)
phytotoxicity rating ORYSA ([24]; 0.800 kg/ha): 5 (5 - Definite injury)
